Source: ChEMBL document CHEMBL4303084, “Identification of antiviral drug candidates against SARS-CoV-2 from FDA-approved drugs” (2020)
Starred links: 1 amine or outer side, 2 acyl side, 3 side chain; linkers in the order of their positions; H or OH if unused. Positions of bridges follow the written chain, without caps; N, C: chain ends. Non-standard residues stand in square brackets, D forms with d. Residues, ends and D or L forms follow the SMILES beside them. *: point of attachment. pTerphenylCO(4''-OnC5H11) = CCCCCOc1ccc(-c2ccc(-c3ccc(C(=O)*)cc3)cc2)cc1; Orn(4R-OH,5R-OH) = O=C([C@H](C[C@@H](O)[C@@H](O)N[*:3])N[*:1])[*:2]; hTyr(3S-OH,4S-OH) = N[C@H](C(=O)O)[C@H](O)[C@@H](O)c1ccc(O)cc1; Pro(3S-OH,4S-Me) = C[C@H]1CN[C@H](C(=O)O)[C@H]1O; Hyp = O=C(O)[C@@H]1C[C@@H](O)CN1

What was measured:
SARS-CoV-2 = experiment: microbe, parasite or virus in culture; assay type: functional, organism-based, Chlorocebus sabaeus; settings: Severe acute respiratory syndrome coronavirus 2, Vero, 24 h
[1] = Cell viability measured by CellTiter-Glo assay in Vero cells at MOI 0.05 after 72hr; settings: chlorocebus sabaeus
[2] = Selectivity index for antiviral vs cytotoxic activity in Vero cells (CC50/IC50); settings: monkey

Compound | IC50 (SARS-CoV-2) [µM] | CC50 at 72 h ([1]; Vero cells) [µM] | selectivity ratio ([2]; Vero cells) | CC50 at 72 h ([1]; vero) [µM] | selectivity ratio ([2]; vero)
CC1=NN(c2ccc(C)c(C)c2)C(=O)/C1=N\Nc1cccc(-c2cccc(C(=O)O)c2)c1O [ELTROMBOPAG] | 8.27 | > 50 |  |  | 
C1CCC(C(CC2CCCCN2)C2CCCCC2)CC1 (centres undefined) [PERHEXILINE] | 6.38 | 8.67 | 1.36 |  | 
CN(C)C(=O)C(CCN1CCC(O)(c2ccc(Cl)cc2)CC1)(c1ccccc1)c1ccccc1 [LOPERAMIDE] |  | 29.3 |  |  | 
OC1(c2ccc(Cl)c(C(F)(F)F)c2)CCN(CCCC(c2ccc(F)cc2)c2ccc(F)cc2)CC1 [PENFLURIDOL] | 5.01 | 8.77 | 1.75 |  | 
O=C(Nc1cc(Cl)cc(Cl)c1O)c1c(O)c(Cl)cc(Cl)c1Cl [OXYCLOZANIDE] | 3.71 | > 50 |  |  | 
CCN(CC)CCOc1ccc(C(O)(Cc2ccc(Cl)cc2)c2ccc(C)cc2)cc1 (centres undefined) [TRIPARANOL] | 7.05 | 14.7 | 2.09 |  | 
CCN(CC)CCOc1ccc2c(c1)C(=O)c1cc(OCCN(CC)CC)ccc1-2 [TILORONE] | 4.09 | 19.7 | 4.81 |  | 
CC1(C)C=Cc2c(c3c(c4c(=O)c(-c5ccc(O)cc5)coc24)OC(C)(C)CC3)O1 | 3.22 | 9.89 | 3.07 |  | 
CCC(CC)COC(=O)[C@H](C)N[P@](=O)(OC[C@H]1O[C@@](C#N)(c2ccc3c(N)ncnn23)[C@H](O)[C@@H]1O)Oc1ccccc1 |  | > 25 |  |  | 
CSc1ccc2c(c1)N(CCC1CCCCN1C)c1ccccc1S2 (centres undefined) [THIORIDAZINE] | 6.69 | 16 | 2.39 |  | 
CCN1CCN(Cc2ccc(Nc3ncc(F)c(-c4cc(F)c5nc(C)n(C(C)C)c5c4)n3)nc2)CC1 [ABEMACICLIB] | 6.62 | > 50 |  |  | 
C[C@@H]1O[C@@H](O[C@@H]2C=C3CC[C@@H]4[C@H](CC[C@]5(C)[C@@H](c6ccc(=O)oc6)CC[C@]45O)[C@@]3(C)CC2)[C@H](O)[C@H](O)[C@H]1O [PROSCILLARIDIN] | 2.04 | > 50 | 24.5 |  | 
CC(C)(C)c1ccc(C(=O)CCCN2CCC(OC(c3ccccc3)c3ccccc3)CC2)cc1 [EBASTINE] |  |  |  | 15.4 | 
COc1cc2c3cc1Oc1c(OC)c(OC)cc4c1[C@@H](Cc1ccc(O)c(c1)Oc1ccc(cc1)C[C@@H]3N(C)CC2)N(C)CC4 [BERBAMINE] | 7.87 | > 50 | 6.35 |  | 
C[C@H]1O[C@@H](O[C@H]2[C@@H](O)C[C@H](O[C@H]3[C@@H](O)C[C@H](O[C@H]4CC[C@@]5(C)[C@H](CC[C@@H]6[C@@H]5C[C@@H](O)[C@]5(C)[C@@H](C7=CC(=O)OC7)CC[C@]65O)C4)O[C@@H]3C)O[C@@H]2C)C[C@H](O)[C@@H]1O [DIGOXIN] | 0.19 | > 50 | 257 |  | 
CC(=O)O[C@H]1C[C@H](O[C@H]2[C@@H](O)C[C@H](O[C@H]3[C@@H](O)C[C@H](O[C@H]4CC[C@@]5(C)[C@H](CC[C@@H]6[C@@H]5C[C@@H](O)[C@]5(C)[C@@H](C7=CC(=O)OC7)CC[C@]65O)C4)O[C@@H]3C)O[C@@H]2C)O[C@H](C)[C@H]1O[C@@H]1O[C@H](CO)[C@@H](O)[C@H](O)[C@H]1O [LANATOSIDE C] | > 50 | > 50 | 1 |  | 
OC(c1cc(C(F)(F)F)nc2c(C(F)(F)F)cccc12)C1CCCCN1 (centres undefined) [MEFLOQUINE] | 4.33 | 14 | 3.22 |  | 
CCN(CC)CCCC(C)Nc1ccnc2cc(Cl)ccc12 (centres undefined) [CHLOROQUINE] |  | > 150 |  |  | 
C[C@@H]1O[C@@H](O[C@H]2C[C@@H](O)[C@]3(CO)[C@H]4[C@H](O)C[C@]5(C)[C@@H](C6=CC(=O)OC6)CC[C@]5(O)[C@@H]4CC[C@]3(O)C2)[C@H](O)[C@H](O)[C@H]1O [OUABAIN OCTAHYDRATE] | < 0.097 | > 50 | 516 |  | 
CCCCCOc1ccc(-c2ccc(-c3ccc(C(=O)N[C@H]4C[C@@H](O)[C@@H](O)NC(=O)[C@@H]5[C@@H](O)[C@@H](C)CN5C(=O)[C@H]([C@@H](C)O)NC(=O)[C@H]([C@H](O)[C@@H](O)c5ccc(O)cc5)NC(=O)[C@@H]5C[C@@H](O)CN5C(=O)[C@H]([C@@H](C)O)NC4=O)cc3)cc2)cc1 [ANIDULAFUNGIN] ({pTerphenylCO(4''-OnC5H11)}-[Orn(4R-OH,5R-OH)]T[Hyp][hTyr(3S-OH,4S-OH)]T[Pro(3S-OH,4S-Me)]; lactam 1-C) | 4.64 | > 50 | 10.8 |  | 
CC(C)C(=O)OCC(=O)[C@@]12O[C@H](C3CCCCC3)O[C@@H]1C[C@H]1[C@@H]3CCC4=CC(=O)C=C[C@]4(C)[C@H]3[C@@H](O)C[C@@]12C [CICLESONIDE] | 4.33 | > 50 | 11.6 |  | 
CCN(CC)CCCC(C)Nc1c2ccc(Cl)cc2nc2ccc(OC)cc12 (centres undefined) [QUINACRINE] | > 50 | 14.7 |  |  | 0.29
CCCCCC(=O)O[C@]1(C(C)=O)CC[C@H]2[C@@H]3CCC4=CC(=O)CC[C@]4(C)[C@H]3CC[C@@]21C [HYDROXYPROGESTERONE CAPROATE] | 6.3 | > 50 | 7.93 |  | 

Compound | IC50 (SARS-CoV-2) [µM] | CC50 at 72 h ([1]; Vero cells) [µM] | selectivity ratio ([2]; Vero cells) | CC50 at 72 h ([1]; vero) [µM] | selectivity ratio ([2]; vero)
CCc1nc(C(N)=O)c(Nc2ccc(N3CCC(N4CCN(C)CC4)CC3)c(OC)c2)nc1NC1CCOCC1 [GILTERITINIB] | 6.76 | 37.2 | 5.5 |  | 
Cc1cccc(C)c1OCC(=O)N[C@@H](Cc1ccccc1)[C@@H](O)C[C@H](Cc1ccccc1)NC(=O)[C@H](C(C)C)N1CCCNC1=O [LOPINAVIR] | 9.12 | > 50 |  |  | 
CCCCc1oc2ccc(NS(C)(=O)=O)cc2c1C(=O)c1ccc(OCCCN(CCCC)CCCC)cc1 [DRONEDARONE] | 3.92 | 8.75 | 2.23 |  | 
CN(C)CCOc1ccc(/C(=C(/CCCl)c2ccccc2)c2ccccc2)cc1 [TOREMIFENE] | 3.58 | 10.1 | 2.82 |  | 
CCN(CC)Cc1cc(Nc2ccnc3cc(Cl)ccc23)ccc1O [AMODIAQUINE] | 5.15 | > 50 |  |  | 
Cc1cc(Nc2ncc(Cl)c(Nc3ccccc3S(=O)(=O)C(C)C)n2)c(OC(C)C)cc1C1CCNCC1 [CERITINIB] | 2.86 | 6.84 | 2.39 |  | 
CC(C)=CCc1c2c(c3occ(-c4ccc(O)cc4)c(=O)c3c1O)C=CC(C)(C)O2 [OSAJIN] | 3.87 | 11.4 | 2.95 |  | 
CC/C(=C(/c1ccc(OCCN(C)C)cc1)c1cccc(O)c1)c1ccccc1 [DROLOXIFENE] | 6.6 | 15.8 | 2.4 |  | 
Cc1c(-c2ccc(O)cc2)n(Cc2ccc(OCCN3CCCCCC3)cc2)c2ccc(O)cc12 [BAZEDOXIFENE] |  | 15 |  |  | 
CCCCCCO[C@@H](C)c1cccc(-c2csc(NC(=O)c3cc(Cl)c(/C=C(\C)C(=O)O)c(Cl)c3)n2)c1OC [LUSUTROMBOPAG] | 3.78 | 14.6 | 3.87 |  | 
CCN(CC)CCOc1ccc(C(=C(Cl)c2ccccc2)c2ccccc2)cc1 [CLOMIPHENE] | 5.36 | 15 | 2.8 |  | 
CN(C)C(=O)COC(=O)Cc1ccc(OC(=O)c2ccc(NC(=N)N)cc2)cc1 [CAMOSTAT] | > 50 | > 50 |  |  | 
O=C(Nc1ccc([N+](=O)[O-])cc1Cl)c1cc(Cl)ccc1O [NICLOSAMIDE] |  | > 50 |  |  | 
CC(C)=CCCC1(C)C=Cc2c(O)c3c(c(CC=C(C)C)c2O1)OC12C(=CC4CC1C(C)(C)OC2(C/C=C(/C)C(=O)O)C4O)C3=O (centres undefined) [DIHYDROGAMBOGIC ACID] | 13.4 | 9.85 | 0.74 |  | 
COc1ccc2cc1Oc1ccc(cc1)C[C@H]1c3c(cc4c(c3Oc3cc5c(cc3OC)CCN(C)[C@@H]5C2)OCO4)CCN1C [CEPHARANTHINE] | 4.47 | > 50 | 11.2 |  | 
c1ccc2c(c1)Sc1ccccc1N2CC1CN2CCC1CC2 (centres undefined) [MEQUITAZINE] | 7.28 | 27.3 | 3.76 |  | 
C=CC(=O)Nc1cc(Nc2nccc(-c3cn(C)c4ccccc34)n2)c(OC)cc1N(C)CCN(C)C [OSIMERTINIB] | 3.26 | 13.2 | 4.05 |  | 
Oc1c(Cl)cc(Cl)c(Cl)c1Cc1c(O)c(Cl)cc(Cl)c1Cl [HEXACHLOROPHENE] | 0.9 | 19.3 | 21.6 |  | 
CC(C)(C)c1cc(C(C)(C)C)c(NC(=O)c2c[nH]c3ccccc3c2=O)cc1O [IVACAFTOR] | 6.57 | 27.3 | 3.76 |  | 
Nc1ccc(/N=N/c2ccccc2)c(N)n1 [PHENAZOPYRIDINE] | 28 | > 50 |  |  | 
C[C@H]1O[C@@H](O[C@H]2[C@@H](O)C[C@H](O[C@H]3[C@@H](O)C[C@H](O[C@H]4CC[C@@]5(C)[C@H](CC[C@@H]6[C@@H]5CC[C@]5(C)[C@@H](C7=CC(=O)OC7)CC[C@]65O)C4)O[C@@H]3C)O[C@@H]2C)C[C@H](O)[C@@H]1O [DIGITOXIN] | < 0.23 | > 50 | 214 |  | 
COc1ccc2cc1Oc1ccc(cc1)C[C@H]1c3cc(c(OC)cc3CCN1C)Oc1c(OC)c(OC)cc3c1[C@H](C2)N(C)CC3 [FANCHININ] | 3 | 14.9 | 4.97 |  | 
CC[C@@H](C(=O)[C@@H](C)[C@@H](O)[C@H](C)[C@@H]1O[C@@H]([C@@H](CC)C(=O)O)CC[C@@H]1C)[C@H]1O[C@]2(C=C[C@@H](O)[C@]3(CC[C@@](C)([C@H]4CC[C@](O)(CC)[C@H](C)O4)O3)O2)[C@H](C)C[C@@H]1C [SALINOMYCIN] | 0.24 | > 50 | 211 |  | 
